Values after ≈ are worked out from the molar mass of the structure shown.
Tests used:
Test in all cases: Minimum Inhibitory Concentration (MIC), agar dilution in Mueller Hinton Agar
Format in all cases: cell-based
Enterobacter Cloacae = details: 20 h
Procedure: (§1) The compounds of this invention and their respective pharmaceutically acceptable salts have antibiotic activity against a variety of gram-negative bacteria including Escherichia coli, Klebsiella pneumoniae, and Pseudomonas aeruginosa. The compounds are useful for treating bacterial infections in animals, including and most preferably humans. Compounds of the invention are tested for in vitro antimicrobial activity using standard testing procedures such as the determination of minimum inhibitory concentration (MIC) by methods described in "Methods for Dilution Antimicrobial Susceptibility Tests for Bacteria That Grow Aerobically" (M7-A) Published December 1985 by the National Committee for Clinical Laboratory Standards, 771 East Lancaster Avenue, Villanova, Pa. 19084. Briefly, MIC values are determined in unsupplemented Mueller Hinton Agar (MHA). The compounds tested are diluted serially into molten MHA at 47° C. The agar is poured into petri dishes and allowed to harden. The various bacteria used for testing are grown overnight on MHA at 35° C. and transferred to Tryptiease Soy Broth (TSB) until a turbidity of 0.5 McFarland standard is obtained. The bacteria are diluted one to twenty in TSB and inoculated on the plates (1 μl using a Steers replicator).

Pseudomonas Aeruginosa = details: 20 h
Procedure: as §1

Citrobacter Freundli = details: 20 h, culture number 3507
Procedure: as §1

Streptococcus Faecalis = details: Enterococcus faecalis, 20 h; culture number 694
Procedure: as §1

Proteus Vulgaris = details: 20 h, culture number 9679
Procedure: as §1

Streptococcus Pyogenes = details: 20 h, culture number 152
Procedure: as §1

Staphylococcus Aureus = details: 20 h
Procedure: as §1

Escherichia Coli = details: 20 h
Procedure: as §1

Streptococcus Pneumoniae = details: 20 h, culture number 41
Procedure: as §1

Klebsiella Oxytoca = details: 20 h
Procedure: as §1

Serratia Marcescens = details: 20 h, culture number 6888
Procedure: as §1

Klebsiella Pneumoniae = details: 20 h, culture number 58
Procedure: as §1

| SMILES | MIC (Enterobacter Cloacae; culture number 9381) [mg/L] | MIC (Enterobacter Cloacae; culture number 9382) [mg/L] | MIC (Pseudomonas Aeruginosa; culture number 231) [mg/L] | MIC (Pseudomonas Aeruginosa; culture number 9191) [mg/L] | MIC (Citrobacter Freundli) [mg/L] | MIC (Streptococcus Faecalis) [mg/L] | MIC (Proteus Vulgaris) [mg/L] | MIC (Streptococcus Pyogenes) [mg/L] | MIC (Staphylococcus Aureus; culture number 3665) [mg/L] | MIC (Staphylococcus Aureus; culture number 6685) [mg/L] | MIC (Staphylococcus Aureus; culture number 9218) [mg/L] | MIC (Escherichia Coli; culture number 9379) [mg/L] | MIC (Escherichia Coli; culture number 9380) [mg/L] | MIC (Escherichia Coli; culture number 9451) [mg/L] | MIC (Streptococcus Pneumoniae) [mg/L] | MIC (Klebsiella Oxytoca; culture number 9383) [mg/L] | MIC (Klebsiella Oxytoca; culture number 9384) [mg/L] | MIC (Serratia Marcescens) [mg/L] | MIC (Klebsiella Pneumoniae) [mg/L] |
| --- | --- | --- | --- | --- | --- | --- | --- | --- | --- | --- | --- | --- | --- | --- | --- | --- | --- | --- | --- |
| Cn1cc(O)c(=O)cc1C(=O)NN1CCN(S(=O)(=O)NC(=O)N2C[C@H](NC(=O)/C(=N\OC(C)(C)C(=O)O)c3csc(N)n3)C2=O)C1=O [E42 (a)] | 64 (≈ 91.6 µM) | 4 (≈ 5.73 µM) | 2 (≈ 2.86 µM) | 2 (≈ 2.86 µM) | 0.5 (≈ 0.716 µM) | > 128 | 0.5 (≈ 0.716 µM) | 128 (≈ 183 µM) | > 128 | > 128 | > 128 | 0.06 (≈ 0.0859 µM) | < 0.015 | 0.06 (≈ 0.0859 µM) | > 128 | 1 (≈ 1.43 µM) | 0.5 (≈ 0.716 µM) | 0.25 (≈ 0.358 µM) | 2 (≈ 2.86 µM) |
| CC(C)(O/N=C(\C(=O)N[C@H]1CN(C(=O)NS(=O)(=O)N2CCN(NC(=O)c3cccc(=O)n3O)C2=O)C1=O)c1csc(N)n1)C(=O)O [E42 (c), Propanoic acid, 2-[[[1-(2-amino-4-thiazolyl)-2[[1-[[[[3-[[(1,6-dihydro-1-hydroxy-2-oxo-6-pyridinyl)carbonyl]amino]-2-oxo-1-imidazolidinyl]sulfonyl]amino]carbonyl]-2-oxo-3-azetidinyl]-amino]-2-oxoethylidene]amino]oxy]-2-methyl-, [S-(Z)]-] | > 64 | 1 (≈ 1.46 µM) | 4 (≈ 5.84 µM) | 8 (≈ 11.7 µM) | 0.5 (≈ 0.73 µM) | > 64 | 0.06 (≈ 0.0876 µM) | 4 (≈ 5.84 µM) | > 64 | > 64 | > 64 | 0.25 (≈ 0.365 µM) | 0.25 (≈ 0.365 µM) | 0.5 (≈ 0.73 µM) | > 64 | 8 (≈ 11.7 µM) | 0.5 (≈ 0.73 µM) | 0.5 (≈ 0.73 µM) | 0.5 (≈ 0.73 µM) |
| Cn1c(-c2cc(=O)c(O)c[nH]2)nn(S(=O)(=O)NC(=O)N2C[C@H](NC(=O)/C(=N\OC(C)(C)C(=O)O)c3csc(N)n3)C2=O)c1=O [E23 (b)] | 4 (≈ 6.11 µM) | 0.5 (≈ 0.764 µM) | 0.125 (≈ 0.191 µM) | 0.25 (≈ 0.382 µM) | 0.03 (≈ 0.0458 µM) | > 64 | 0.03 (≈ 0.0458 µM) | 16 (≈ 24.4 µM) | > 64 | > 64 | > 64 | < 0.008 | < 0.008 | < 0.008 | > 64 | 0.03 (≈ 0.0458 µM) | 0.03 (≈ 0.0458 µM) | 0.015 (≈ 0.0229 µM) | 0.25 (≈ 0.382 µM) |

The next lines start with the values.

| MIC (Enterobacter Cloacae; culture number 9381) [mg/L] | MIC (Enterobacter Cloacae; culture number 9382) [mg/L] | MIC (Pseudomonas Aeruginosa; culture number 231) [mg/L] | MIC (Pseudomonas Aeruginosa; culture number 9191) [mg/L] | MIC (Citrobacter Freundli) [mg/L] | MIC (Streptococcus Faecalis) [mg/L] | MIC (Proteus Vulgaris) [mg/L] | MIC (Streptococcus Pyogenes) [mg/L] | MIC (Staphylococcus Aureus; culture number 3665) [mg/L] | MIC (Staphylococcus Aureus; culture number 6685) [mg/L] | MIC (Staphylococcus Aureus; culture number 9218) [mg/L] | MIC (Escherichia Coli; culture number 9379) [mg/L] | MIC (Escherichia Coli; culture number 9380) [mg/L] | MIC (Escherichia Coli; culture number 9451) [mg/L] | MIC (Streptococcus Pneumoniae) [mg/L] | MIC (Klebsiella Oxytoca; culture number 9383) [mg/L] | MIC (Klebsiella Oxytoca; culture number 9384) [mg/L] | MIC (Serratia Marcescens) [mg/L] | MIC (Klebsiella Pneumoniae) [mg/L] | SMILES |
| --- | --- | --- | --- | --- | --- | --- | --- | --- | --- | --- | --- | --- | --- | --- | --- | --- | --- | --- | --- |
| 64 (≈ 93.6 µM) | 1 (≈ 1.46 µM) | 0.5 (≈ 0.731 µM) | 0.5 (≈ 0.731 µM) | 0.25 (≈ 0.366 µM) | > 64 | 0.25 (≈ 0.366 µM) | 16 (≈ 23.4 µM) | > 64 | > 64 | > 64 | 0.015 (≈ 0.0219 µM) | < 0.008 | 0.015 (≈ 0.0219 µM) | > 64 | 0.5 (≈ 0.731 µM) | 0.125 (≈ 0.183 µM) | 0.125 (≈ 0.183 µM) | 1 (≈ 1.46 µM) | CC(C)(O/N=C(\C(=O)N[C@H]1CN(C(=O)NS(=O)(=O)N2CCN(C(=O)c3cc(=O)c(O)c[nH]3)CC2=O)C1=O)c1csc(N)n1)C(=O)O [Compound E17] |
| 64 (≈ 88.3 µM) | 4 (≈ 5.52 µM) | 16 (≈ 22.1 µM) | 16 (≈ 22.1 µM) | 0.5 (≈ 0.69 µM) | > 64 | 2 (≈ 2.76 µM) | 64 (≈ 88.3 µM) | > 64 | > 64 | > 64 | 0.06 (≈ 0.0828 µM) | 0.03 (≈ 0.0414 µM) | 0.125 (≈ 0.172 µM) | > 64 | 1 (≈ 1.38 µM) | 0.5 (≈ 0.69 µM) | 0.5 (≈ 0.69 µM) | 2 (≈ 2.76 µM) | CC(C)(O/N=C(\C(=O)N[C@H]1CN(C(=O)NS(=O)(=O)N2CCN(NC(=O)c3cc(=O)c(O)cn3C3CC3)C2=O)C1=O)c1csc(N)n1)C(=O)O [Compound E42, Propanoic acid, 2-[[[1-(2-amino-4-thiazolyl)-2-[[1-[[[[3-[[(1-cyclopropyl-1,4-dihydro-5-hydroxy-4-oxo-2-pyridinyl)carbonyl]amino]-2-oxo-1-imidazolidinyl]sulfonyl]amino]carbonyl]-2-oxo-3-azetidinyl]amino]-2-oxoethylidene]amino]oxy]-2-methyl-, [S-(Z)]-] |
